In ChEMBL document CHEMBL1201862, “PubChem BioAssay data set” (2004):
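Five concentrations, 48 hours, 96-well plates. GI50 = concentration required for 50% inhibition of growth.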 Active and inactive are the calls of the source. Rule as the data show it: active = GI50 up to about 1.1 µM and inactive = higher.

What was measured:
Assay in all cases: NCI-60 cell line screen, 48 h
A498 = tested on: A498
CAKI-1 = tested on: CAKI-1
CCRF-CEM = tested on: CCRF-CEM
COLO 205 = tested on: COLO 205
HL-60 = tested on: HL-60
HT-29 = tested on: HT-29
OVCAR-4 = tested on: OVCAR-4
OVCAR-8 = tested on: OVCAR-8
SF-268 = tested on: SF-268
SF-295 = tested on: SF-295
SK-MEL-28 = tested on: SK-MEL-28
SK-MEL-5 = tested on: SK-MEL-5
TK-10 = tested on: TK-10
UACC-62 = tested on: UACC-62
UO-31 = tested on: UO-31
RPMI-8226 = tested on: RPMI-8226

Structure (SMILES)	GI50 (A498)	GI50 (CAKI-1)	GI50 (CCRF-CEM)	GI50 (COLO 205)	GI50 (HL-60)	GI50 (HT-29)	GI50 (OVCAR-4)	GI50 (OVCAR-8)	GI50 (SF-268)	GI50 (SF-295)	GI50 (SK-MEL-28)	GI50 (SK-MEL-5)	GI50 (TK-10)	GI50 (UACC-62)	GI50 (UO-31)	GI50 (RPMI-8226)
CC(=O)Nc1ccc(C(=O)NN2C(=O)C(Cl)C2c2ccccc2O)cc1 (stereo not drawn)	> 100 µM (inactive)	> 100 µM (inactive)	4.9 µM (inactive)	45.2 µM (inactive)	84.7 µM (inactive)	69 µM (inactive)	> 100 µM (inactive)	42.2 µM (inactive)	84.7 µM (inactive)	29.1 µM (inactive)	> 100 µM (inactive)	> 100 µM (inactive)	51.4 µM (inactive)	37.2 µM (inactive)	34.4 µM (inactive)	
C/C=C/C#CC#C/C=C/C=C/C(O)CCO (stereo not drawn)		> 23.1 µM (inactive)	> 23.1 µM (inactive)	> 23.1 µM (inactive)	> 18.1 µM (inactive)	> 23.1 µM (inactive)	> 23.1 µM (inactive)	> 23.1 µM (inactive)	> 23.1 µM (inactive)	> 18.7 µM (inactive)	> 23.1 µM (inactive)	> 23.1 µM (inactive)	> 23.1 µM (inactive)	> 23.1 µM (inactive)	> 23.1 µM (inactive)	> 23.1 µM (inactive)
c1ccc2cc(C3NCCc4nc[nH]c43)ccc2c1 (stereo not drawn)	25.9 µM (inactive)	60.3 µM (inactive)	35.6 µM (inactive)	24.9 µM (inactive)		41.7 µM (inactive)	57 µM (inactive)	89.7 µM (inactive)	> 100 µM (inactive)	68.5 µM (inactive)	> 100 µM (inactive)	19.1 µM (inactive)	28 µM (inactive)	55.7 µM (inactive)	35.8 µM (inactive)	45.5 µM (inactive)
COc1ccc(N2C(=O)C3CC(c4ccc(C)cc4)c4c([nH]c5ccccc45)C3C2=O)cc1 (stereo not drawn)	30.2 µM (inactive)	> 96.2 µM (inactive)	11 µM (inactive)	20.7 µM (inactive)	14.5 µM (inactive)	16.3 µM (inactive)	13.9 µM (inactive)	5.43 µM (inactive)	19.5 µM (inactive)	> 48.8 µM (inactive)	> 49.9 µM (inactive)	63.1 µM (inactive)	36.5 µM (inactive)	> 100 µM (inactive)	> 47.2 µM (inactive)	
NNC(=O)N/N=C1\C(=O)N(c2ccc(Cl)c(Cl)c2)C(=O)C(=O)C1c1nc2ccccc2s1 (stereo not drawn)	> 100 µM (inactive)	> 100 µM (inactive)	50.2 µM (inactive)	> 100 µM (inactive)	> 100 µM (inactive)	> 100 µM (inactive)	> 100 µM (inactive)	> 100 µM (inactive)	> 100 µM (inactive)	> 100 µM (inactive)	> 100 µM (inactive)	> 100 µM (inactive)	> 100 µM (inactive)	> 100 µM (inactive)	> 100 µM (inactive)	
COc1nc2c(c(O)c(C)c(=O)n2OC2OC(COC(C)=O)C(OC(C)=O)C(OC(C)=O)C2OC(C)=O)c(=O)n1C (stereo not drawn)			> 100 µM (inactive)	> 100 µM (inactive)		> 100 µM (inactive)	> 100 µM (inactive)	> 100 µM (inactive)	> 100 µM (inactive)	> 100 µM (inactive)	> 100 µM (inactive)	> 100 µM (inactive)	> 100 µM (inactive)	> 100 µM (inactive)	> 100 µM (inactive)	
Cc1ccccc1N(CCC#N)C1=NN(C(=O)CC(=O)Nc2ccccc2)C(c2ccccc2)C1 (stereo not drawn)			> 100 µM (inactive)	> 100 µM (inactive)	> 100 µM (inactive)	> 100 µM (inactive)	> 100 µM (inactive)	> 100 µM (inactive)	> 100 µM (inactive)	> 100 µM (inactive)	> 100 µM (inactive)	> 100 µM (inactive)		> 100 µM (inactive)	> 100 µM (inactive)	> 100 µM (inactive)
CC(=O)OC1CC2(C)OC(Cc3ccccc32)O1 (stereo not drawn)			> 100 µM (inactive)	> 100 µM (inactive)	> 100 µM (inactive)	> 100 µM (inactive)		> 100 µM (inactive)	> 100 µM (inactive)	> 100 µM (inactive)	> 100 µM (inactive)		> 100 µM (inactive)	> 100 µM (inactive)	> 100 µM (inactive)	> 100 µM (inactive)
CN1NC2(CCCCC2)ON=C1c1ccccc1	> 100 µM (inactive)	> 100 µM (inactive)	> 100 µM (inactive)	> 100 µM (inactive)	> 100 µM (inactive)	> 100 µM (inactive)	> 100 µM (inactive)	> 100 µM (inactive)	> 100 µM (inactive)	> 100 µM (inactive)	> 100 µM (inactive)	> 100 µM (inactive)	> 100 µM (inactive)	> 100 µM (inactive)		
Cc1ccc(S(=O)(=O)C(CC(NC=O)S(=O)(=O)c2ccc(C)cc2)NC=O)cc1 (stereo not drawn)	> 100 µM (inactive)	> 100 µM (inactive)	62.4 µM (inactive)	> 100 µM (inactive)	> 100 µM (inactive)	> 100 µM (inactive)	> 100 µM (inactive)	> 100 µM (inactive)	> 100 µM (inactive)	> 100 µM (inactive)		> 100 µM (inactive)	> 100 µM (inactive)	> 100 µM (inactive)	> 100 µM (inactive)	> 100 µM (inactive)
Cc1ccc(-c2cc(=O)c3cc(C)c(C)c(C(=O)O)c3o2)cc1	> 100 µM (inactive)		> 100 µM (inactive)	> 100 µM (inactive)		> 100 µM (inactive)	> 100 µM (inactive)	> 100 µM (inactive)	> 100 µM (inactive)	> 100 µM (inactive)	> 100 µM (inactive)	> 100 µM (inactive)	> 100 µM (inactive)	> 100 µM (inactive)	> 100 µM (inactive)	> 100 µM (inactive)
Cc1cc(=O)n(-c2ccccc2C)c(C)n1	> 100 µM (inactive)	> 100 µM (inactive)	> 100 µM (inactive)	> 100 µM (inactive)	> 100 µM (inactive)	> 100 µM (inactive)	> 100 µM (inactive)	> 100 µM (inactive)	> 100 µM (inactive)	> 100 µM (inactive)	> 100 µM (inactive)	> 100 µM (inactive)	> 100 µM (inactive)	> 100 µM (inactive)	> 100 µM (inactive)	
C=CCNC(=S)NNC(=O)c1c(C)nc2sccn12		> 100 µM (inactive)	> 100 µM (inactive)	> 100 µM (inactive)	> 100 µM (inactive)	> 100 µM (inactive)		> 100 µM (inactive)	> 100 µM (inactive)	> 100 µM (inactive)	> 100 µM (inactive)	> 100 µM (inactive)	> 100 µM (inactive)	> 100 µM (inactive)		
Cc1ccc(/C=C2\CCCC(C(NO)c3ccc(C)cc3)C2=NO)cc1 (stereo not drawn)	49.8 µM (inactive)	81.8 µM (inactive)	21 µM (inactive)	19.1 µM (inactive)	19.5 µM (inactive)	19.5 µM (inactive)	20 µM (inactive)	53 µM (inactive)	17.6 µM (inactive)		16.1 µM (inactive)	21.2 µM (inactive)	> 100 µM (inactive)	89.5 µM (inactive)	57.4 µM (inactive)	22.6 µM (inactive)
Cc1cc2c(C)nn(Cc3ccccc3Cl)c2c(C#N)c1C			> 100 µM (inactive)	> 100 µM (inactive)	> 100 µM (inactive)	> 100 µM (inactive)		> 100 µM (inactive)	> 100 µM (inactive)	> 100 µM (inactive)	> 100 µM (inactive)		> 100 µM (inactive)	> 100 µM (inactive)	> 100 µM (inactive)	> 100 µM (inactive)
CCc1ccccc1NC(=O)C1=C(C)NC(C)=C(C(=O)Nc2c(CC)cccc2CC)C1c1ccc2c(c1)OCO2 (stereo not drawn)		19.5 µM (inactive)	19.1 µM (inactive)	19.5 µM (inactive)	23 µM (inactive)	18 µM (inactive)	15.2 µM (inactive)	25.8 µM (inactive)	20.3 µM (inactive)	20.3 µM (inactive)	18.1 µM (inactive)	14.6 µM (inactive)	22.3 µM (inactive)		16.2 µM (inactive)	15.8 µM (inactive)
COc1ccc(/C=C2\CCC(C)(CN(C)C)C2=O)cc1 (stereo not drawn)	> 100 µM (inactive)	18.7 µM (inactive)		> 100 µM (inactive)	56.4 µM (inactive)	> 100 µM (inactive)	> 100 µM (inactive)	> 100 µM (inactive)	> 100 µM (inactive)	> 100 µM (inactive)	> 100 µM (inactive)	> 100 µM (inactive)	> 100 µM (inactive)	> 100 µM (inactive)	> 100 µM (inactive)	38 µM (inactive)
CSc1nnc(C(C#N)C#N)nn1	> 100 µM (inactive)	> 100 µM (inactive)	> 100 µM (inactive)	> 100 µM (inactive)	> 100 µM (inactive)	> 100 µM (inactive)	> 100 µM (inactive)	> 100 µM (inactive)	> 100 µM (inactive)	> 100 µM (inactive)		> 100 µM (inactive)	> 100 µM (inactive)	> 100 µM (inactive)	> 100 µM (inactive)	> 100 µM (inactive)
COc1cc2c(c(OC)c1OC)-c1ccc(SC)c(=O)cc1[C@@H](NCc1ccc([N+](=O)[O-])cc1)CC2	0.00461 µM (active)	0.01 µM (active)	0.00277 µM (active)	0.00396 µM (active)	0.00202 µM (active)	0.00331 µM (active)		0.00578 µM (active)	0.00676 µM (active)	0.00364 µM (active)	0.00493 µM (active)	0.00421 µM (active)	0.0423 µM (active)	0.00345 µM (active)	0.406 µM (active)	0.00349 µM (active)
